Literature values in patent publication US20200206380A1, “METHOD OF PRODUCING AND PROVIDING AN ANTIMICROBIAL AGENT THAT EXERTS AN EXTENDED RESIDUAL EFFECT” (Dabney Patents, L.L.C., priority 2018, published 2020).
Like-named read-outs stand apart in the source and are kept apart here.

Tested on: bacteria
Conditions: exposed for 20 seconds

## OO [hydrogen peroxide]
Hydrogen peroxide used alone
  % of bacteria killed: 30%
In combination with radiation of 360 nm to 500 nm
  % of bacteria killed: ≥ 96%
